Target: T1, recombinant murine Aurora A enzyme (Mus musculus, UniProt P97477)
T1 construct: hexahistidine (His6) (N); made in house; host or cells: insect cells, baculovirus (Bac-to-Bac, Invitrogen)
Assay: Aurora A DELFIA Kinase Assay
Format: biochemical
Conditions: mouse Aurora A, 250 μM ATP; threshold less than or equal to 100 nM; read-out: IC50
Excerpt: Recombinant mouse Aurora A with an amino-terminus hexahistidine tag (His-Aurora A) was expressed using a standard baculovirus vector and insect cell expression system (Bac-to-Bac®, Invitrogen).
Soluble, recombinant mouse Aurora A was purified from insect cells using Ni-NTA agarose (Qiagen) as described by the manufacturer and further purified over an S75 size exclusion column (Amersham Pharmacia Biotech).
Aurora A DELFIA® Kinase Assay
The enzymatic reaction mixture, with and without Aurora inhibitors, was incubated for 15 minutes at room temperature before termination with 100 μL of stop buffer (1% BSA, 0.05% Surfact-AMPS-20, and 100 mM EDTA). A total of 100 μL of the enzyme reaction mixture was transferred to wells of a Neutravidin-coated 96-well plate (Pierce) and incubated at room temperature for 30 minutes. The wells were washed with wash buffer (25 mM Tris, 150 mM sodium chloride, and 0.1% Tween 20) and incubated for 1 hour with 100 μL of antibody reaction mixture containing 1% BSA, 0.05% Surfact-AMPS-20, anti-phospho-PKA rabbit polyclonal antibody (1:2000, New England Biolabs), and europium labeled anti-rabbit IgG (1:2000, Perkin Elmer). The wells were washed and then the bound europium was liberated using 100 μL of Enhancement Solution (Perkin Elmer). Quantification of europium was done using a Wallac™ EnVision (Perkin Elmer).

T1 sequence (P97477 whole entry): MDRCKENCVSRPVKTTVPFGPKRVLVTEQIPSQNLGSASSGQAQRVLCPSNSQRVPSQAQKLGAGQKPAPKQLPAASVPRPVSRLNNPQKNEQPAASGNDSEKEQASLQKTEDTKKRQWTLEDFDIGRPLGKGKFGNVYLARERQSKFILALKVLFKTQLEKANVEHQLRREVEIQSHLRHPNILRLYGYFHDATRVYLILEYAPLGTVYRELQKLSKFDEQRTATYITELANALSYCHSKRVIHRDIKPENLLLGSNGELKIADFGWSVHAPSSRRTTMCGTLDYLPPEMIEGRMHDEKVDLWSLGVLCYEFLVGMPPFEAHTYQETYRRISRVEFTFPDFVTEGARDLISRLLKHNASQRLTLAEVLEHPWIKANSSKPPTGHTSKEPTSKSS

| Compound | IC50 [nM] |
| --- | --- |
| C[C@@H]1CNCCN1C(=O)c1ccc(Nc2ncc3c(n2)-c2ccc(Cl)cc2C(c2c(F)cccc2F)=NC3)cc1 [Compound I-366, 9-chloro-7-(2,6-difluorophenyl)-N-(4-{[(2R)-2-methylpiperazin-1-yl]carbonyl}phenyl)-5H-pyrimido[5,4-d][2]benzazepin-2-amine] | ≤ 100 |
| O=C(O)c1ccc(Nc2ncc3c(n2)-c2ccc(Cl)cc2C(c2ncccc2F)=NC3)cc1 [Compound I-301, 4-{[9-chloro-7-(3-fluoropyridin-2-yl)-5H-pyrimido[5,4-d][2]benzazepin-2-yl]amino}benzoic acid] | ≤ 100 |
| CNC1CCN(C(=O)c2ccc(Nc3ncc4c(n3)-c3ccc(Cl)cc3C(c3ccccc3OC)=NC4)cc2)CC1 [Compound I-331, 9-chloro-7-(2-methoxyphenyl)-N-(4-{[4-(methylamino)piperidin-1-yl]carbonyl}phenyl)-5H-pyrimido[5,4-d][2]benzazepin-2-amine] | ≤ 100 |
| O=C(O)c1ccc(Nc2ncc3c(n2)-c2ccc(Br)cc2C(c2c(F)cccc2F)=NC3)cc1 [Compound I-274, 4-{[9-bromo-7-(2,6-difluorophenyl)-5H-pyrimido[5,4-d][2]benzazepin-2-yl]amino}benzoic acid] | ≤ 100 |
| O=C(O)c1ccc(Nc2ncc3c(n2)-c2ccc(Cl)cc2C(c2ccccc2F)=NC3)cc1 [Compound I-52, 4-[9-Chloro-7-(2-fluoro-phenyl)-5H-benzo[c]pyrimido[4,5-e]azepin-2-ylamino]-benzoic acid] | ≤ 100 |
| CN1CCC(N(C)C(=O)c2ccc(Nc3ncc4c(n3)-c3ccc(Cl)cc3C(c3ccccc3F)=NC4)cc2)CC1 [Compound I-128, 4-[9-Chloro-7-(2-fluoro-phenyl)-5H-benzo[c]pyrimido[4,5-e]azepin-2-ylamino]-N-methyl-N-(1-methyl-piperidin-4-yl)-benzamide] | ≤ 100 |
| N=C(c1ccc(Nc2ncc3c(n2)-c2ccc(Cl)cc2C(c2c(F)cccc2F)=NC3)cc1)N1CCC(N)C1 (stereo not shown) [Compound I-284] | ≤ 100 |
| CN(C)C1CCN(C(=O)c2ccc(Nc3ncc4c(n3)-c3ccc(Cl)cc3C(c3c(F)cccc3F)=NC4)cc2)C1 (stereo not shown) [Compound I-176, 9-Chloro-7-(2,6-difluorophenyl)-N-(4-{[3-(dimethylamino)pyrrolidin-1-yl]carbonyl}phenyl)-5H-pyrimido[5,4-d][2]benzazepin-2-amine] | ≤ 100 |
| O=C(c1ccc(Nc2ncc3c(n2)-c2ccc(Cl)cc2C(c2ccccc2F)=NC3)cc1)N(CCO)CCO [Compound I-27, 4-[9-Chloro-7-(2-fluoro-phenyl)-5H-benzo[c]pyrimido[4,5-e]azepin-2-ylamino]-N,N-bis-(2-hydroxy-ethyl)-benzamide] | ≤ 100 |
| CN1CCC(N(C)C(=O)c2ccc(Nc3ncc4c(n3)-c3ccc(Cl)cc3C(c3ccccc3F)=NC4)cc2)C1 (stereo not shown) [Compound I-99, 4-[9-Chloro-7-(2-fluoro-phenyl)-5H-benzo[c]pyrimido[4,5-e]azepin-2-ylamino]-N-methyl-N-(1-methyl-pyrrolidin-3-yl)-benzamide] | ≤ 100 |
| CN(C)C1CCN(C(=O)c2ccc(Nc3ncc4c(n3)-c3ccc(Cl)cc3C(c3c(F)cccc3F)=NC4)cc2Cl)CC1 [Compound I-313, 9-chloro-N-(3-chloro-4-{[4-(dimethylamino)piperidin-1-yl]carbonyl}phenyl)-7-(2,6-difluorophenyl)-5H-pyrimido[5,4-d][2]benzazepin-2-amine] | ≤ 100 |
| CC1CN(C(=O)c2ccc(Nc3ncc4c(n3)-c3ccc(Cl)cc3C(c3c(F)cccc3Cl)=NC4)cc2)CC(C)N1 (stereo not shown) [Compound I-324, 9-chloro-7-(2-chloro-6-fluorophenyl)-N-{4-[(3,5-dimethylpiperazin-1-yl)carbonyl]phenyl}-5H-pyrimido[5,4-d][2]benzazepin-2-amine] | ≤ 100 |
| CNC1CCN(C(=O)c2ccc(Nc3ncc4c(n3)-c3ccc(Cl)cc3C(c3ccccc3C(F)(F)F)=NC4)cc2)CC1 [Compound I-288, 9-chloro-N-(4-{[4-(methylamino)piperidin-1-yl]carbonyl}phenyl)-7-[2-(trifluoromethyl)phenyl]-5H-pyrimido[5,4-d][2]benzazepin-2-amine] | ≤ 100 |
| CCOC(=O)[C@@H](CCN)NC(=O)c1ccc(Nc2ncc3c(n2)-c2ccc(Cl)cc2C(c2c(F)cccc2F)=NC3)cc1 [Compound I-309, ethyl (2R)-4-amino-2-[(4-{[9-chloro-7-(2,6-difluorophenyl)-5H-pyrimido[5,4-d][2]benzazepin-2-yl]amino}benzoyl)amino]butanoate] | ≤ 100 |
| CNCCCN(C)C(=O)c1ccc(Nc2ncc3c(n2)-c2ccc(Cl)cc2C(c2c(F)cccc2OC)=NC3)cc1 [Compound I-261, 4-{[9-chloro-7-(2-fluoro-6-methoxyphenyl)-5H-pyrimido[5,4-d][2]benzazepin-2-yl]amino}-N-methyl-N-[3-(methylamino)propyl]benzamide] | ≤ 100 |
| CNCCN(C)C(=O)c1cc(Nc2ncc3c(n2)-c2ccc(Cl)cc2C(c2c(F)cccc2F)=NC3)ccc1Cl [Compound I-283, 2-chloro-5-{[9-chloro-7-(2,6-difluorophenyl)-5H-pyrimido[5,4-d][2]benzazepin-2-yl]amino}-N-methyl-N-[2-(methylamino)ethyl]benzamide] | ≤ 100 |
| CN1CCN(CCCNC(=O)Cc2cccc(Nc3ncc4c(n3)-c3ccc(Cl)cc3C(c3ccccc3F)=NC4)c2)CC1 [Compound I-25, 2-{3-[9-Chloro-7-(2-fluoro-phenyl)-5H-benzo[c]pyrimido[4,5-e]azepin-2-ylamino]-phenyl}-N-[3-(4-methyl-piperazin-1-yl)-propyl]-acetamide] | ≤ 100 |
| CN(CCN)C(=O)c1ccc(Nc2ncc3c(n2)-c2ccc(Cl)cc2C(c2ccccc2F)=NC3)cc1 [Compound I-2, N-(2-Amino-ethyl)-4-[9-chloro-7-(2-fluoro-phenyl)-5H-benzo[c]pyrimido[4,5-e]azepin-2-ylamino]-N-methyl-benzamide] | ≤ 100 |
| CNC1CCN(C(=O)c2ccc(Nc3ncc4c(n3)-c3ccc(Cl)cc3C(c3ccccn3)=NC4)cc2)CC1 [Compound I-316, 9-chloro-N-(4-{[4-(methylamino)piperidin-1-yl]carbonyl}phenyl)-7-pyridin-2-yl-5H-pyrimido[5,4-d][2]benzazepin-2-amine] | ≤ 100 |
| NC1CCN(C(=O)c2ccc(Nc3ncc4c(n3)-c3ccc(Cl)cc3C(c3ncccc3F)=NC4)cc2)C1 (stereo not shown) [Compound I-305] | ≤ 100 |
| CNC1CCN(C(=O)c2ccc(Nc3ncc4c(n3)-c3ccc(Cl)cc3C(c3ccccc3F)=NC4)cc2)C1 (stereo not shown) [Compound I-102, {4-[9-Chloro-7-(2-fluoro-phenyl)-5H-benzo[c]pyrimido[4,5-e]azepin-2-ylamino]-phenyl}-(3-methylamino-pyrrolidin-1-yl)-methanone] | ≤ 100 |
| CNCCNC(=O)c1ccc(Nc2ncc3c(n2)-c2ccc(Cl)cc2C(c2ccccc2F)=NC3)cc1 [Compound I-1, 4-[9-Chloro-7-(2-fluoro-phenyl)-5H-benzo[c]pyrimido[4,5-e]azepin-2-ylamino]-N-(2-methylamino-ethyl)-benzamide] | ≤ 100 |
| CN1CCN(C(=O)Cc2ccc(Nc3ncc4c(n3)-c3ccc(Cl)cc3C(c3ccccc3F)=NC4)cc2)CC1 [Compound I-145, 2-{4-[9-Chloro-7-(2-fluoro-phenyl)-5H-benzo[c]pyrimido[4,5-e]azepin-2-ylamino]-phenyl}-1-(4-methyl-piperazin-1-yl)-ethanone] | ≤ 100 |
| CN1CCCC(CN2CCN(C(=O)c3ccc(Nc4ncc5c(n4)-c4ccc(Cl)cc4C(c4ccccc4F)=NC5)cc3)CC2)C1 (stereo not shown) [Compound I-211, 9-chloro-7-(2-fluorophenyl)-N-[4-({4-[(1-methylpiperidin-3-yl)methyl]piperazin-1-yl}carbonyl)phenyl]-5H-pyrimido[5,4-d][2]benzazepin-2-amine] | ≤ 100 |
| CNC1CCN(C(=O)c2ccc(Nc3ncc4c(n3)-c3ccc(Cl)cc3C(c3ccccc3C(F)(F)F)=NC4)cc2)C1 (stereo not shown) [Compound I-290, 9-chloro-N-(4-{[3-(methylamino)pyrrolidin-1-yl]carbonyl}phenyl)-7-[2-(trifluoromethyl)phenyl]-5H-pyrimido[5,4-d][2]benzazepin-2-amine] | ≤ 100 |
| Cc1ccccc1C1=NCc2cnc(Nc3ccc(C(=O)NCCCN4CCN(C)CC4)cc3)nc2-c2ccc(Cl)cc21 [Compound I-21, 4-(9-Chloro-7-o-tolyl-5H-benzo[c]pyrimido[4,5-e]azepin-2-ylamino)-N-[3-(4-methyl-piperazin-1-yl)-propyl]-benzamide] | ≤ 100 |
| CCOC(=O)C1CN=C(c2ccc(Nc3ncc4c(n3)-c3ccc(Cl)cc3C(c3c(F)cccc3F)=NC4)cc2)N1 (stereo not shown) [Compound I-314, ethyl 2-(4-{[9-chloro-7-(2,6-difluorophenyl)-5H-pyrimido[5,4-d][2]benzazepin-2-yl]amino}phenyl)-4,5-dihydro-1H-imidazole-5-carboxylate] | ≤ 100 |
| CC1CN(C(=O)c2ccc(Nc3ncc4c(n3)-c3ccc(Cl)cc3C(c3c(F)cccc3F)=NC4)cc2Cl)CCN1 (stereo not shown) [Compound I-216, 9-chloro-N-{3-chloro-4-[(3-methylpiperazin-1-yl)carbonyl]phenyl}-7-(2,6-difluorophenyl)-5H-pyrimido[5,4-d][2]benzazepin-2-amine] | ≤ 100 |

Source: US9102678B2, “Compounds and methods for inhibiting mitotic progression” (Millennium Pharmaceuticals, Inc., priority 2004, dated 2015)
